Assay results: US20100093706A1, “MULTIMEDIATOR TRANSPORTER INHIBITORS FOR USE IN TREATMENT OF CENTRAL NERVOUS SYSTEM DISORDERS” (priority 2006, published 2010)

Columns and labels:
dopamine D2 receptor = dopamine D2 receptor (Homo sapiens, UniProt P14416); experiment: in vitro selectivity panel, dopamine D2 receptor; format: binding
Method: (§1) The in vitro selectivity profile of two representative subject compounds, (3) and (1), are also tested against a panel of other receptors, including the M1 receptor, Histamine H1 receptor, sigma-1 (σ1) receptor, β1-adrenergic receptor, and dopamine D2 receptor. Representative results are listed below in Table III: […]

DAT (h) = biological target: T1, DAT (h) (Homo sapiens, UniProt Q01959); experiment: cell-based; format: cell-based; conditions: human; nM; read-out: DAT (h) in vitro functional uptake
T1 construct: expressed in transfected cells
Method: (§2) Functional activity of the compounds was determined in vitro in cellular assays using recombinant human cell lines.

NET (h) = biological target: T2, NET (h) (Homo sapiens, UniProt P23975); experiment: cell-based; format: cell-based; conditions: human; nM; read-out: NET (h) in vitro functional uptake
T2 construct: expressed in transfected cells; host or cells: MDCK
Method: as §2

in vivo = conditions: rat
5-HT = 5-HT (Homo sapiens, UniProt P31645); experiment: cell-based; conditions: own compounds tested as racemic mixtures of enriched diastereomers
M1 receptor = biological target: T3, M1 receptor (Homo sapiens, UniProt P11229); experiment: in vitro selectivity panel, M1 receptor; format: binding
T3 sequence (P11229 1-460): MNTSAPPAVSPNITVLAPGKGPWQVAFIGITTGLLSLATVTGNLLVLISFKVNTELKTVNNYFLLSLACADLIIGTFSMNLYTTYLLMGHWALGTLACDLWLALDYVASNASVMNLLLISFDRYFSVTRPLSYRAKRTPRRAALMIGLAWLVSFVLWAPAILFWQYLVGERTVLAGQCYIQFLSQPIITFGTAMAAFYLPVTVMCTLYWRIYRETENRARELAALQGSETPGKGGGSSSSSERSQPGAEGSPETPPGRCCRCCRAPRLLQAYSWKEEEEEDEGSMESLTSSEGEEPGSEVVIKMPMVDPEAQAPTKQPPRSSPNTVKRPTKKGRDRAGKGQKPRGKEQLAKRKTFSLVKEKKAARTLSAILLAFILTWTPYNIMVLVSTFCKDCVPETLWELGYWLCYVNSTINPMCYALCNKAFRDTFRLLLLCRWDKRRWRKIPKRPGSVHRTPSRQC
Method: as §1

Sprague-Dawley rats = experiment: 7 day multidose oral dosing toxicology study; format: in vivo, rat
Description: The representative results are listed below in Table VI.

Histamine H1 receptor = Histamine H1 receptor (Homo sapiens, UniProt P35367); experiment: in vitro selectivity panel, Histamine H1 receptor; format: binding
Method: as §1

DAT (r) = DAT (r) (Rattus norvegicus, UniProt P23977); experiment: in vitro functional uptake, rat DAT; format: cell-based
rats = experiment: forced swim test (behavioral despair assay) in rats; format: in vivo; conditions: rat
Method: In vivo efficacy of several illustrative inhibitors of the instant invention, (1), (3), and (4), were measured using standard forced swim test model using rat. The objective of this study was to assess the antidepressant effects of test compounds in the behavioral despair assay in rats using a modification of a method described by Porsolt R. D. et al. in Behavioural despair in rats: a new model sensitive to antidepressant treatment, Eur. J. Pharmacol., 47: 379-391, 1978; Porsolt et al., Nature 266: 730-732, 1977; and Porsolt et al., in Psychopharmacology, Olivier, Mos, and Slangen (eds) Birkhäuser Verlag, Basel, pp. 137-159, 1991. Briefly, when mice (or rats) are forced to swim in a cylinder from which no escape is possible, they readily adopt a characteristic immobile posture and make no further attempts to escape except for small movements needed to keep floating. The immobility is considered by some to reflect a “depressive mood” (Porsolt et al., Nature 266: 730-732, 1977) in which animals cease to struggle to escape the aversive situation. The immobility induced by the procedure is influenced by a wide variety of antidepressants (Porsolt et al., in Psychopharmacology, Olivier, Mos, and Slangen (eds) Birkhauser Verlag, Basel, pp. 137-159, 1991) and has a good predictive validity in that it detects antidepressants with different mechanisms of action (TCAs, SSRIs, MAOIs, and other atypical ones). The test is sensitive to muscle-relaxant (benzodiazepines) and sedative (neuroleptics) effects, leading to enhanced immobility (Porsolt et al., supra).
In a typical experiment, animals are placed singly into a cylinder (e.g. 46×30 cm) containing fresh water at about 20° C. for 6 minutes. The activity (or immobility) of the animal is measured by an observer minute by minute. In more detail, the animals were preconditioned in a pretest session, where the rats were individually forced to swim inside a vertical plexiglass cylinder containing water maintained at 19-20° C. After 15 minutes in the water, they were allowed to dry for […] in a heated enclosure. Twenty-four hours later, the compounds were administered either intraperitoneally or orally to the animals. One hour after administration of the test compound, animals were put back into the cylinder containing water. The total duration of immobility was measured during the last 4 minutes of a 6 minute test.
The results are expressed as the percentage of variation of the total duration of immobility calculated from the mean value of the vehicle-treated group (% variation=[(immobility duration of vehicle−immobility duration of test compound)/(immobility duration of vehicle)]×100%).
In order to measure the in vivo efficacy of inhibiting DAT in rats using an inhibitor of the instant invention, one test inhibitor ((1), (3), or (4)) was injected i.p. as racemic mixtures of diastereomers into the animals, at various-doses (e.g. 7.5 and […]). Sibutramine (2.0 and 2.5 mg/kg), Bupropion (7.5 and 10 mg/kg), and Imipramine (30 mg/kg) were similarly administered as controls. […] Asterisks indicate highly statistical significant results.
A fourth inhibitor, (6) was administered p.o. as a racemic mixture of diastereomers at either 35 or 75 mg/kg. Sibutramine (5.0 and 3.75 mg/kg), Bupropion (30 and 40 mg/kg), and Imipramine (100 mg/kg) were similarly administered as controls.
Similarly, (1) was also administered p.o. as a racemic mixture of enriched (95:5) diastereomer at either 35 or 75 mg/kg. […]

β1-adrenergic receptor = β1-adrenergic receptor (Homo sapiens, UniProt P08588); experiment: in vitro selectivity panel, β1-adrenergic receptor; format: binding
Method: as §1

β1-adrenergic receptor, sequence (P08588 whole entry): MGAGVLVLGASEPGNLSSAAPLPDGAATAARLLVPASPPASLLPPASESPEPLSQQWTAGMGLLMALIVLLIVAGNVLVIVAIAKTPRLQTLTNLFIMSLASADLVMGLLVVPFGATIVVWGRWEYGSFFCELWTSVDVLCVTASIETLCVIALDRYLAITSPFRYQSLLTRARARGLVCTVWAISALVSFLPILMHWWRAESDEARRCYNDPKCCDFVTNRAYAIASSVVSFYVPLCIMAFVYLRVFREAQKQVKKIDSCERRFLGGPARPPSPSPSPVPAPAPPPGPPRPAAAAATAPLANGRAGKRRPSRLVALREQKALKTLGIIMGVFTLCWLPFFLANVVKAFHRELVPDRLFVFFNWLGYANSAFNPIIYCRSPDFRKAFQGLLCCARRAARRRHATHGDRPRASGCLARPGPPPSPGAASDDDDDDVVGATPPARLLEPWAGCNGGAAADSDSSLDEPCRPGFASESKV
dopamine D2 receptor, sequence (P14416 whole entry): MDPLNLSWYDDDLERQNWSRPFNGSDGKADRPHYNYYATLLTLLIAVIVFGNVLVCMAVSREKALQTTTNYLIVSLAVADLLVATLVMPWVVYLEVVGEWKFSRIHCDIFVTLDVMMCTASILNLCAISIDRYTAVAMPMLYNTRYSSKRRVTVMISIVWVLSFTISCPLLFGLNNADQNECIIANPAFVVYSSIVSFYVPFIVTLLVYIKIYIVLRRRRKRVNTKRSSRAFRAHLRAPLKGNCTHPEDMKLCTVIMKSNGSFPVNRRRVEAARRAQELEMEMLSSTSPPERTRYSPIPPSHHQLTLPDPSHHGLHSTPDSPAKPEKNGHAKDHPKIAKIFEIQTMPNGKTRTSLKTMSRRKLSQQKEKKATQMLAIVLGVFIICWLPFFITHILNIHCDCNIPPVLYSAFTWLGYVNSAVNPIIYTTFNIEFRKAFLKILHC
5-HT, sequence (P31645 whole entry): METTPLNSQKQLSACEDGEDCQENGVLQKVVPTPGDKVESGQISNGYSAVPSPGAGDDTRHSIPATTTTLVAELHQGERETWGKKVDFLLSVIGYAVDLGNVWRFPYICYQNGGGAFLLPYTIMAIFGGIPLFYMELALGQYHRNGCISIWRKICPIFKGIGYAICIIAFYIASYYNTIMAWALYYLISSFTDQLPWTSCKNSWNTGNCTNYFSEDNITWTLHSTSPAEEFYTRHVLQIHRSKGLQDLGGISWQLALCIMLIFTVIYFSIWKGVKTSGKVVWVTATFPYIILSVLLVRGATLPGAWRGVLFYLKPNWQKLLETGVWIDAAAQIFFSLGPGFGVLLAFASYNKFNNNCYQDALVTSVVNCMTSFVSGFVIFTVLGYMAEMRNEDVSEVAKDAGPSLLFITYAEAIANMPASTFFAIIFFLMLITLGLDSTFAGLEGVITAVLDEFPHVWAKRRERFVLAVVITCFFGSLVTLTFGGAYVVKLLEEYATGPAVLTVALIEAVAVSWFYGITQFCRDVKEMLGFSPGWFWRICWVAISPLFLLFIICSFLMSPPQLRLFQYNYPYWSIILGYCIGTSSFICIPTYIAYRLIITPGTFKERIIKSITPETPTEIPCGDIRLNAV
DAT (r), sequence (P23977 whole entry): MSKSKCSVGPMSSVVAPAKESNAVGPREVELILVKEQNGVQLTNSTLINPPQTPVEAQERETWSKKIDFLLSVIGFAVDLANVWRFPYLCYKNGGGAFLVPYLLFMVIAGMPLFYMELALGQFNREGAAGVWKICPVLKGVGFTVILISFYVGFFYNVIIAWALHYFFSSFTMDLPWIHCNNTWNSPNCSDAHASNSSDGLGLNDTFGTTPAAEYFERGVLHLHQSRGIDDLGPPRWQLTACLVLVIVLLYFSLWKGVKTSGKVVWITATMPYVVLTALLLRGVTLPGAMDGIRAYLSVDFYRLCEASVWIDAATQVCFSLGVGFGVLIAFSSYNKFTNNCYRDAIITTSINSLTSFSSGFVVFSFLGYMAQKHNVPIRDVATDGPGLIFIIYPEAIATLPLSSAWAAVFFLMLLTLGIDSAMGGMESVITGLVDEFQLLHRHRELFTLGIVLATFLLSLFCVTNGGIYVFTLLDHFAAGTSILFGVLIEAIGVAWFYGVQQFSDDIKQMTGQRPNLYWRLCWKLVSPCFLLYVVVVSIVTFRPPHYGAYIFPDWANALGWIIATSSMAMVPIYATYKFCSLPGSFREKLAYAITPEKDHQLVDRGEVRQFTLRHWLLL
Histamine H1 receptor, sequence (P35367 whole entry): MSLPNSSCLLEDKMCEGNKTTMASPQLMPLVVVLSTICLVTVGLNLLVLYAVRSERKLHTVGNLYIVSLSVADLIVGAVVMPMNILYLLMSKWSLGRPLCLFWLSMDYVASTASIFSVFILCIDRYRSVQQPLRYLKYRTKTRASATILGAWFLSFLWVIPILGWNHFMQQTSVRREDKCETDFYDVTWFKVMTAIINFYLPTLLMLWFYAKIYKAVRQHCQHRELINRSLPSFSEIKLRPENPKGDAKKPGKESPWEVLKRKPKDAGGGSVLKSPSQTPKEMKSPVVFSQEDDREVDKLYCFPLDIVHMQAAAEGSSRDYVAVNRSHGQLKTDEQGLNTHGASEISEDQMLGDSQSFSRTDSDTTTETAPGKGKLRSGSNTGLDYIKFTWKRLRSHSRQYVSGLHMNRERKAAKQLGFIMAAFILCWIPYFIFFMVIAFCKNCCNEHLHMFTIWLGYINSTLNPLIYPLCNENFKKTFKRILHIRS
T1 sequence (Q01959 whole entry): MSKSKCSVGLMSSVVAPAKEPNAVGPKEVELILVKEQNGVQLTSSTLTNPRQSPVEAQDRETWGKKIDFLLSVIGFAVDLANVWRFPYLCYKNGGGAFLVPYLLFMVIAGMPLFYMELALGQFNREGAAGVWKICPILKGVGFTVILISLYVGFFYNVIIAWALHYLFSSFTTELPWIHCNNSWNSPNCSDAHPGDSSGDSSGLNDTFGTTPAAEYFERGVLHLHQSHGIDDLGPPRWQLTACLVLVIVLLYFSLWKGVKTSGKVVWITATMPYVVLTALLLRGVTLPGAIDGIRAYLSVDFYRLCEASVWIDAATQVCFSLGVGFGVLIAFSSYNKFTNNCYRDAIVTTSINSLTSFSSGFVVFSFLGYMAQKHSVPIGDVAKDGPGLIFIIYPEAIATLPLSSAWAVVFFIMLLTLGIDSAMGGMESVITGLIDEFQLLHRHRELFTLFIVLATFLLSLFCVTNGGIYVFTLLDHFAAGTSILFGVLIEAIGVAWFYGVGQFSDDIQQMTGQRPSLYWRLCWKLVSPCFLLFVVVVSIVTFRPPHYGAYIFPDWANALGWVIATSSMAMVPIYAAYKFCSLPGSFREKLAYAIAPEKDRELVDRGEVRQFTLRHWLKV
T2 sequence (P23975 whole entry): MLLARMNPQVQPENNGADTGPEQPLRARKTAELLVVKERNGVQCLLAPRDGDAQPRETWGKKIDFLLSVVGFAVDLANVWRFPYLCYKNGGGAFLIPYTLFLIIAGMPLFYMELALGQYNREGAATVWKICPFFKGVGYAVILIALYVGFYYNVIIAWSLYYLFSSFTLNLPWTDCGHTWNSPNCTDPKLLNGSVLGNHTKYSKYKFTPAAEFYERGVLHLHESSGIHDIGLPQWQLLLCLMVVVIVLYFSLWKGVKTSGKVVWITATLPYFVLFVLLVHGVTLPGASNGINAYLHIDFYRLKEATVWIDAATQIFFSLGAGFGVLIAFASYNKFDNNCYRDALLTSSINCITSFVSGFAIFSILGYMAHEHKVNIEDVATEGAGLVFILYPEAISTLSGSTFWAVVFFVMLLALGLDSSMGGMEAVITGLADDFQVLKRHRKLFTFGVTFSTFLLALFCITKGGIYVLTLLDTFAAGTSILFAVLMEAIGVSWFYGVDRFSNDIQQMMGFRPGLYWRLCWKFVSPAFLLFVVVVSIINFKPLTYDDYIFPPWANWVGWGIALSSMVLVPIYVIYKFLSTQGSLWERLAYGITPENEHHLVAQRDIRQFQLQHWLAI

## CC1CCN(CC2(c3ccc(Cl)cc3)CCC2)CC1COc1ccc(C(F)(F)F)cc1 (stereo not shown) [(1)]
Dopamine D2 receptor
  D2 (nM)h: 1000 nM
DAT (h)
  EC50: 1 nM
NET (h)
  EC50: 1000 nM
In vivo
  Vd: 6 L/kg
In vivo; iv
  half-life: 200 min
In vivo; po
  bioavailability: 40%
5-HT
  IC50: 1200 nM
M1 receptor
  M1 (nM)h: 5000 nM
Sprague-Dawley rats; Sprague-Dawley rats n = 6 (3M/3F), oral 100 mg/kg/day, 100 mg/kg/day
  7 day multidose oral toxicology, symptoms: did not display any significant symptoms
Sprague-Dawley rats; n = 6, oral 200 mg/kg/day
  7 day multidose oral toxicology, self-mutilation (number of animals): 1 self-mutilation
Sprague-Dawley rats; n = 6, oral 400 mg/kg/day
  7 day multidose oral toxicology, self-mutilation (number of animals): 3 self-mutilation
Histamine H1 receptor
  Histamine H1 (nM)h: 5000 nM
DAT (r)
  EC50: 80 nM
rats; i.p., racemic mixtures of diastereomers
  forced swim test efficacy versus commercial drugs (FIG. 1): performed equally well, if not better, than the commercial drugs Sibutramine, Bupropion, and Imipramine
rats; p.o., 35 or 75 mg/kg
  forced swim test efficacy versus commercial drugs (FIG. 2, FIG. 3): performed equally well, if not better, than the commercial drugs Sibutramine, Bupropion, and Imipramine
β1-adrenergic receptor
  β1-adrenergic (nM)h: 5000 nM
